In ChEMBL document CHEMBL1201861, “Genomics of Drug Sensitity in Cancer screening data, Wellcome Trust Sanger Institute”:

Legend:
Assay in all cases: cells
COR-L105 = assay type: functional, cell-based, Homo sapiens; conditions: Homo sapiens, COR-L105;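 also: cell growth inhibition determined with a viability assay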
Description: SANGER: Inhibition of human COR-L105 cell growth in a cell viability assay.

CTB-1 = assay type: functional, cell-based; conditions: Homo sapiens
Description: SANGER: Inhibition of human CTB-1 cell growth in a cell viability assay.

CW-2 = assay type: functional, cell-based, Homo sapiens; conditions: Homo sapiens, CW-2;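 also: growth inhibition of CW-2 cells, read out by a cell viability assay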
Description: SANGER: Inhibition of human CW-2 cell growth in a cell viability assay.

DMS-114 = assay type: functional, cell-based, Homo sapiens; conditions: Homo sapiens, DMS-114
ETK-1 = assay type: functional, cell-based, Homo sapiens; conditions: Homo sapiens, ETK-1;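 also: growth inhibition of human ETK-1 cells, read out with a cell viability assay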
Description: SANGER: Inhibition of human ETK-1 cell growth in a cell viability assay.

EW-18 = assay type: functional, cell-based; conditions: Homo sapiens;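 also: growth inhibition of EW-18 cells, read out by a cell viability assay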
Description: SANGER: Inhibition of human EW-18 cell growth in a cell viability assay.

FaDu = assay type: functional, cell-based, Homo sapiens; conditions: Homo sapiens, FaDu;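 also: cell viability readout of growth inhibition in FaDu cells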
Description: SANGER: Inhibition of human FADU cell growth in a cell viability assay.

HCC1419 = assay type: functional, cell-based, Homo sapiens; conditions: Homo sapiens, HCC1419;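 also: growth inhibition of human HCC1419 cells, read out as cell viability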
Description: SANGER: Inhibition of human HCC1419 cell growth in a cell viability assay.

HCC1954 = assay type: functional, cell-based, Homo sapiens; conditions: Homo sapiens, HCC1954;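 also: growth inhibition of human HCC1954 cells, read out with a cell viability assay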
Description: SANGER: Inhibition of human HCC1954 cell growth in a cell viability assay.

HCC38 = assay type: functional, cell-based, Homo sapiens; conditions: Homo sapiens, HCC38;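 also: cell viability assay on the human HCC38 cell line, with IC50 marking the concentration that inhibits cell growth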
Description: SANGER: Inhibition of human HCC38 cell growth in a cell viability assay.

Hs-578T = assay type: functional, cell-based, Homo sapiens; conditions: Homo sapiens, Hs-578T
Description: SANGER: Inhibition of human Hs-578-T cell growth in a cell viability assay.

HuP-T4 = assay type: functional, cell-based, Homo sapiens; conditions: Homo sapiens, HuP-T4;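 also: cell viability assay measuring how much HuP-T4 cell growth is inhibited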
Description: SANGER: Inhibition of human HuP-T4 cell growth in a cell viability assay.

KMOE-2 = assay type: functional, cell-based; conditions: Homo sapiens;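 also: growth inhibition of human KMOE-2 cells, read out with a cell viability assay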
Description: SANGER: Inhibition of human KMOE-2 cell growth in a cell viability assay.

LU-134-A = assay type: functional, cell-based; conditions: Homo sapiens
Description: SANGER: Inhibition of human LU-134-A cell growth in a cell viability assay.

M14 = assay type: functional, cell-based, Homo sapiens; conditions: Homo sapiens, M14;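 also: growth inhibition of M14 cells, read out with a cell viability assay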
Description: SANGER: Inhibition of human M14 cell growth in a cell viability assay.

MCF7 = assay type: functional, cell-based, Homo sapiens; conditions: Homo sapiens, MCF7;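 also: growth inhibition of human MCF7 cells, read out with a cell viability assay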
Description: SANGER: Inhibition of human MCF7 cell growth in a cell viability assay.

MS-1 = assay type: functional, cell-based; conditions: Homo sapiens
Description: SANGER: Inhibition of human MS-1 cell growth in a cell viability assay.

NB10 = assay type: functional, cell-based, Homo sapiens; conditions: Homo sapiens, NB10;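 also: growth inhibition of NB10 cells, read out by a cell viability assay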
Description: SANGER: Inhibition of human NB10 cell growth in a cell viability assay.

NB13 = assay type: functional, cell-based, Homo sapiens; conditions: Homo sapiens, NB13;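 also: cell viability readout measuring growth inhibition of human NB13 cells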
Description: SANGER: Inhibition of human NB13 cell growth in a cell viability assay.

NB5 = assay type: functional, cell-based, Homo sapiens; conditions: Homo sapiens, NB5;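 also: growth inhibition of NB5 cells, read out as cell viability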
Description: SANGER: Inhibition of human NB5 cell growth in a cell viability assay.

NB6 = assay type: functional, cell-based, Homo sapiens; conditions: Homo sapiens, NB6;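 also: growth inhibition of NB6 cells, read out by a cell viability assay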
Description: SANGER: Inhibition of human NB6 cell growth in a cell viability assay.

NCI-H1299 = assay type: functional, cell-based, Homo sapiens; conditions: Homo sapiens, NCI-H1299;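 also: growth inhibition of human NCI-H1299 cells, read out by a cell viability assay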
Description: SANGER: Inhibition of human NCI-H1299 cell growth in a cell viability assay.

NCI-H1437 = assay type: functional, cell-based, Homo sapiens; conditions: Homo sapiens, NCI-H1437;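 also: growth inhibition of human NCI-H1437 cells, read out by a cell viability assay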
Description: SANGER: Inhibition of human NCI-H1437 cell growth in a cell viability assay.

NCI-H1581 = assay type: functional, cell-based, Homo sapiens; conditions: Homo sapiens, NCI-H1581;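 also: cell growth inhibition read out by a viability assay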
Description: SANGER: Inhibition of human NCI-H1581 cell growth in a cell viability assay.

NCI-H2347 = assay type: functional, cell-based, Homo sapiens; conditions: Homo sapiens, NCI-H2347;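 also: growth inhibition of the cell line, read out with a cell viability assay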
Description: SANGER: Inhibition of human NCI-H2347 cell growth in a cell viability assay.

NCI-H661 = assay type: functional, cell-based, Homo sapiens; conditions: Homo sapiens, NCI-H661;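 also: cell viability assay read-out, IC50 being the concentration that inhibits growth of the cells by half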
Description: SANGER: Inhibition of human NCI-H661 cell growth in a cell viability assay.

NCI-H727 = assay type: functional, cell-based, Homo sapiens; conditions: Homo sapiens, NCI-H727;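 also: growth inhibition of human NCI-H727 cells, read out with a cell viability assay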
Description: SANGER: Inhibition of human NCI-H727 cell growth in a cell viability assay.

NOS-1 = assay type: functional, cell-based, Homo sapiens; conditions: Homo sapiens, NOS-1;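 also: growth inhibition of the human NOS-1 cell line, read out with a cell viability assay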
Description: SANGER: Inhibition of human NOS-1 cell growth in a cell viability assay.

NUGC-3 = assay type: functional, cell-based, Homo sapiens; conditions: Homo sapiens, NUGC-3;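 also: growth inhibition of human NUGC-3 cells, read out with a cell viability assay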
Description: SANGER: Inhibition of human NUGC-3 cell growth in a cell viability assay.

PANC-08-13 = assay type: functional, cell-based, Homo sapiens; conditions: Homo sapiens, PANC-08-13;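 also: cell growth inhibition, measured with a cell viability assay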
Description: SANGER: Inhibition of human PANC-08-13 cell growth in a cell viability assay.

PC-3 = assay type: functional, cell-based, Homo sapiens; conditions: Homo sapiens, PC-3;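 also: cell viability assay measuring growth inhibition of PC-3 cells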
Description: SANGER: Inhibition of human PC-3 cell growth in a cell viability assay.

RCC10RGB = assay type: functional, cell-based, Homo sapiens; conditions: Homo sapiens, RCC10RGB;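 also: growth inhibition of human RCC10RGB cells, read out by a cell viability assay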
Description: SANGER: Inhibition of human RCC10RGB cell growth in a cell viability assay.

RD = assay type: functional, cell-based, Homo sapiens; conditions: Homo sapiens, RD
Description: SANGER: Inhibition of human RD cell growth in a cell viability assay.

RS4-11 = assay type: functional, cell-based; conditions: Homo sapiens;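 also: growth inhibition of RS4-11 cells, read out by a cell viability assay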
Description: SANGER: Inhibition of human RS4-11 cell growth in a cell viability assay.

SBC-5 = assay type: functional, cell-based, Homo sapiens; conditions: Homo sapiens, SBC-5;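 also: cell viability assay read-out, IC50 is the concentration that inhibits growth of the cells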
Description: SANGER: Inhibition of human SBC-5 cell growth in a cell viability assay.

SK-MEL-28 = assay type: functional, cell-based; conditions: Homo sapiens;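 also: growth inhibition of human SK-MEL-28 cells, read out with a cell viability assay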
Description: SANGER: Inhibition of human SK-MEL-28 cell growth in a cell viability assay.

SK-PN-DW = assay type: functional, cell-based; conditions: Homo sapiens;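 also: growth inhibition measured with a viability assay on these cells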
Description: SANGER: Inhibition of human SK-PN-DW cell growth in a cell viability assay.

SW1710 = assay type: functional, cell-based, Homo sapiens; conditions: Homo sapiens, SW1710;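 also: growth inhibition of SW1710 cells, determined with a cell viability assay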
Description: SANGER: Inhibition of human SW1710 cell growth in a cell viability assay.

SW 954 = assay type: functional, cell-based, Homo sapiens; conditions: Homo sapiens, SW 954;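 also: growth inhibition of SW954 human cancer cells, read out as cell viability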
Description: SANGER: Inhibition of human SW954 cell growth in a cell viability assay.

A204 = assay type: functional, cell-based, Homo sapiens; conditions: Homo sapiens, A204;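 also: growth inhibition of human A204 cells, read out with a cell viability assay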
Description: SANGER: Inhibition of human A204 cell growth in a cell viability assay.

A-427 = assay type: functional, cell-based, Homo sapiens; conditions: Homo sapiens, A-427;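 also: growth inhibition of human A-427 cells, read out by a cell viability assay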
Description: SANGER: Inhibition of human A427 cell growth in a cell viability assay.

ALL-PO = assay type: functional, cell-based; conditions: Homo sapiens;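 also: growth inhibition of ALL-PO cells, read out by a cell viability assay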
Description: SANGER: Inhibition of human ALL-PO cell growth in a cell viability assay.

BE-13 = assay type: functional, cell-based; conditions: Homo sapiens;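 also: growth inhibition of human BE-13 cells, measured with a cell viability assay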
Description: SANGER: Inhibition of human BE-13 cell growth in a cell viability assay.

CAL-120 = assay type: functional, cell-based, Homo sapiens; conditions: Homo sapiens, CAL-120;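 also: cell growth inhibition, read out as cell viability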
Description: SANGER: Inhibition of human CAL-120 cell growth in a cell viability assay.

CAL-72 = assay type: functional, cell-based, Homo sapiens; conditions: Homo sapiens, CAL-72;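 also: cell viability assay measuring inhibition of proliferation in the CAL-72 cell line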
Description: SANGER: Inhibition of human CAL-72 cell growth in a cell viability assay.

TE-9 = assay type: functional, cell-based, Homo sapiens; conditions: Homo sapiens, TE-9;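 also: cell growth inhibition, measured with a cell viability readout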
Description: SANGER: Inhibition of human TE-9 cell growth in a cell viability assay.

U-266 = assay type: functional, cell-based; conditions: Homo sapiens
Description: SANGER: Inhibition of human U-266 cell growth in a cell viability assay.

UO-31 = assay type: functional, cell-based; conditions: Homo sapiens;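 also: cell viability assay measuring inhibition of cell growth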
Description: SANGER: Inhibition of human U031 cell growth in a cell viability assay.

U-251 = assay type: functional, cell-based, Homo sapiens; conditions: Homo sapiens, U-251;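 also: growth inhibition of human U-251 cells, read out through a cell viability assay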
Description: SANGER: Inhibition of human U251 cell growth in a cell viability assay.

UACC-62 = assay type: functional, cell-based, Homo sapiens; conditions: Homo sapiens, UACC-62;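 also: growth inhibition of human UACC-62 cells, read out by a cell viability assay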
Description: SANGER: Inhibition of human UACC-62 cell growth in a cell viability assay.

no-11 = assay type: functional, cell-based, Homo sapiens; conditions: Homo sapiens;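 also: growth inhibition of human NO-11 cells, read out with a cell viability assay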
Description: SANGER: Inhibition of human no-11 cell growth in a cell viability assay.

CCRF-CEM = assay type: functional, cell-based; conditions: Homo sapiens;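 also: inhibition of CCRF-CEM cell growth, measured by a cell viability assay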
Description: SANGER: Inhibition of human CCRF-CEM cell growth in a cell viability assay.

CGTH-W-1 = assay type: functional, cell-based, Homo sapiens; conditions: Homo sapiens, CGTH-W-1;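 also: growth inhibition of human CGTH-W-1 cells measured by cell viability assay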
Description: SANGER: Inhibition of human CGTH-W-1 cell growth in a cell viability assay.

**Q.** What does the source list for `Cc1cnc(-c2cnc(NCCNc3ccc(C#N)cn3)nc2-c2ccc(Cl)cc2Cl)[nH]1` [LADUVIGLUSIB]?
**A.** IC50 (COR-L105): > 2560 nM; IC50 (CTB-1): > 2560 nM; IC50 (CW-2): > 2560 nM; IC50 (DMS-114): > 2560 nM; IC50 (ETK-1): > 2560 nM; IC50 (EW-18): > 2560 nM; IC50 (FaDu): > 2560 nM; IC50 (HCC1419): > 2560 nM; IC50 (HCC1954): > 2560 nM; IC50 (HCC38): > 2560 nM; IC50 (Hs-578T): > 2560 nM; IC50 (HuP-T4): > 2560 nM; IC50 (KMOE-2): > 2560 nM; IC50 (LU-134-A): > 2560 nM; IC50 (M14): > 2560 nM; IC50 (MCF7): > 2560 nM; IC50 (MS-1): > 2560 nM; IC50 (NB10): > 2560 nM; IC50 (NB13): > 2560 nM; IC50 (NB5): > 2560 nM; IC50 (NB6): > 2560 nM; IC50 (NCI-H1299): > 2560 nM; IC50 (NCI-H1437): > 2560 nM; IC50 (NCI-H1581): > 2560 nM; IC50 (NCI-H2347): > 2560 nM; IC50 (NCI-H661): > 2560 nM; IC50 (NCI-H727): > 2560 nM; IC50 (NOS-1): > 2560 nM; IC50 (NUGC-3): > 2560 nM; IC50 (PANC-08-13): > 2560 nM; IC50 (PC-3): > 2560 nM; IC50 (RCC10RGB): > 2560 nM; IC50 (RD): > 2560 nM; IC50 (RS4-11): 1950 nM; IC50 (SBC-5): > 2560 nM; IC50 (SK-MEL-28): > 2560 nM; IC50 (SK-PN-DW): > 2560 nM; IC50 (SW1710): > 2560 nM; IC50 (SW 954): > 2560 nM; IC50 (A204): > 2560 nM; IC50 (A-427): > 2560 nM; IC50 (ALL-PO): > 2560 nM; IC50 (BE-13): > 2560 nM; IC50 (CAL-120): > 2560 nM; IC50 (CAL-72): > 2560 nM; IC50 (TE-9): > 2560 nM; IC50 (U-266): > 2560 nM; IC50 (UO-31): > 2560 nM; IC50 (U-251): > 2560 nM; IC50 (UACC-62): > 2560 nM; IC50 (no-11): > 2560 nM; IC50 (CCRF-CEM): > 2560 nM; IC50 (CGTH-W-1): > 2560 nM
